Source: article PMC3328449, “Inhibition of Diacylglycerol–Sensitive TRPC Channels by Synthetic and Natural Steroids” (PLoS ONE, 2012)
“And” between values parts separate entries of the source, which are not always exact repeats. Equal values may be shown once.

Target: T1, mTRPC5 (Mus musculus, UniProt Q9QX29)
T1 construct: expressed in transfected cells
T1 sequence (Q9QX29 1-975): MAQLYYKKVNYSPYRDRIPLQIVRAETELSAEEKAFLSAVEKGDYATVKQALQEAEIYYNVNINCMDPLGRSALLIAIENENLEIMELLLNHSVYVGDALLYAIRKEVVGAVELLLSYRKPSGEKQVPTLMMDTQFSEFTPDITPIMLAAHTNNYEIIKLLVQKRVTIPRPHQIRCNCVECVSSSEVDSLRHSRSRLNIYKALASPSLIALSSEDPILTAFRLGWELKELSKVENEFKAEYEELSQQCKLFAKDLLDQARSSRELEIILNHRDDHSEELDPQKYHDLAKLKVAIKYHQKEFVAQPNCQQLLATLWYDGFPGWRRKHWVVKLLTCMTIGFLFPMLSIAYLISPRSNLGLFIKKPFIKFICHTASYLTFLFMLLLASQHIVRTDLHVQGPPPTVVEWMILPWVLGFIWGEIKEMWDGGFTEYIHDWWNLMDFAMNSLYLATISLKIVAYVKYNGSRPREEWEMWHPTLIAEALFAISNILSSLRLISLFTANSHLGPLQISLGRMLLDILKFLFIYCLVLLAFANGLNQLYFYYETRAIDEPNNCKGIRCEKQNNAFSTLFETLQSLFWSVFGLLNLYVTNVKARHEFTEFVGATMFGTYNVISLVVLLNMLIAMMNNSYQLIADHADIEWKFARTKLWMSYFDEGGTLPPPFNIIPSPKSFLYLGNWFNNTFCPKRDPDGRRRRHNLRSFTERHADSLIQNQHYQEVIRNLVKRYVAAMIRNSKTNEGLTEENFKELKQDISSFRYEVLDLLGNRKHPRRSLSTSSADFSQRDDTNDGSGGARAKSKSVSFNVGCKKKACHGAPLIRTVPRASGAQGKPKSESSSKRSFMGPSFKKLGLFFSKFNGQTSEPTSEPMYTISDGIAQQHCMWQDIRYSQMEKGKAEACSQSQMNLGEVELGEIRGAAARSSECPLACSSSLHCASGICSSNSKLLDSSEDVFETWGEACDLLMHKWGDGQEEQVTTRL
Experiment: Whole-cell patch clamp, AlF4- evoked TRPC5 currents
Format: cell-based
Description: Cells were grown at 37°C in a humidified atmosphere (5% or 7% CO2) under standard cell culture conditions. Stable human embryonic kidney (HEK) cell lines expressing recombinant mTRPC4ß (GenBank accession number AAC05178); mTRPC5 (GenBank accession number NM_009428) or hTRPC6 (GenBank accession number AF080394) under the control of a tetracycline-inducible promoter were generated using the Flp-In T-Rex (FITR) system (Invitrogen, Karlsruhe, Germany). […]
Cells grown on poly-L-lysine-coated coverslips were continuously superfused with extracellular solution and substances were applied using an ALA BPS-8 perfusion system (ALA Scientific Instruments, Westbury, USA). […] Cells were held at −70 mV, and current-voltage (I–V) relationships were routinely measured every 2 or 3 s by applying voltage ramps (180 ms) from −100 mV to +80 mV. […]
For statistical analysis, analysis of variance was performed with Origin 6.0 software (Microcal Software Inc., Northampton, USA). […] IC50 were calculated with SigmaPlot (Systat software, San Jose, USA) using the sigmoidal Hill-model: f = 100 (C^n/(IC50 ^n+C^n)); where f is the inhibition, C is the applied drug concentration and n is the Hill coefficient. […] Averaged data is expressed as means ± SEM.

C#C[C@]1(OC(C)=O)CC[C@H]2[C@@H]3CCC4=CC(=NO)CC[C@@H]4[C@H]3CC[C@@]21CC (mixture of isomers) [norgestimate]
Hill slope, TRPC5 current inhibition (fit to dose-response equation): 1.43
IC50 (whole-cell patch clamp, AlF4- infusion, TRPC5 HEK-FITR cells, read-out: IC50, TRPC5 current inhibition): > 10 µM and 13.6 µM and ~14 µM
